# Measured values reported in PMC11212260, “Next-generation neuropeptide Y receptor small-molecule agonists inhibit mosquito-biting behavior” (Parasites & Vectors, 2024).
# Several values for one entry are separate records, joined by “and”; a condition that tells them apart may be missing. Identical values can stand only once. Like-named read-outs stand apart in the source and are kept apart here.
# Tests used:
# [1] = system: Aedes aegypti (Orlando strain) females; experiment: Host-seeking screening assay (miniport olfactometer); format: in vivo; settings: for Attraction (relative to saline): fed 1 μM in saline, tested 48 h post-meal, per-compound value of Fig. 3C
# Description: (§1) Groups of 60–150 females were placed in bucket cages with a diameter of 21.6 cm and height of 16.5 cm (VWR) and fasted with access to water for 24 h prior to feeding. Meals were delivered to females via Glytube membrane feeders as described previously. Meals consisted of 1.5 ml sheep blood (HemoStat Laboratories), saline (400 mM NaHCO3 + dih2O), or saline and test compound. Lyophilized compounds were stored at room temperature until use. High-concentration stocks (30 mM in 100% dimethyl sulfoxide [DMSO]) (Sigma-Aldrich) were stored at −20 °C and diluted in saline immediately prior to feeding. Once prepared, meals and glycerol heating elements were warmed in a 42 °C water bath for 15 min to provide warmth to attract mosquitos to feed. ATP (1 mM final concentration) and test compounds (1 μM final concentration) were added prior to placing the meal on top of the mesh on the cage containing female mosquitos. Females were allowed 15–20 min to feed to repletion. Abdominal engorgement was scored by eye and confirmed by weighing females to ensure full feeding (Data S1). […] Females were returned to their original cage with a diH2O wick for 48 h prior to behavioral testing. The lethality of each compound was measured by counting the number of dead females in each cage 24 h post-meal.
# Miniport olfactometers were fabricated in-house as described previously. Information regarding design, construction, and use can be found at https://github.com/VosshallLab/Miniport-Construction. Miniport canisters consisted of a 6″ × 3″ × 3″ acrylic tube with a mesh screen to allow for air flow. Groups of 10–20 females were loaded into canisters 24 h post-meal. Females were left in canisters overnight to acclimate with two cotton balls soaked in diH20 to prevent desiccation. Behavior trials began 48 h post-meal. Canisters were randomly assigned to attraction traps 1–4 and given 5 min to acclimate. The stimulus end of the trap was connected to a flowmeter that supplied 5% CO2 at a rate of 30 ml/min. Thirty seconds of CO2 flow was supplied to activate females prior to opening the sliding door. Once opened, the sliding door gave females access to the attraction trap baited with a human-scented nylon stocking previously worn by the same experimenter for 8–10 h to collect body odor and stored in a plastic bag at −20 °C until use. After 5 min, the sliding door was closed and attraction was scored as mosquitoes in the attraction trap/total number of mosquitoes. For each experiment data were normalized to the matched average saline attraction from the same experiment (% attracted/average saline attraction). Any dead mosquitoes were excluded from the analysis. Non-fed females and blood-fed females served as environmental control groups while the saline-fed females served as the vehicle control each day. If non-fed or saline-fed females were less than 50% attracted or if blood-fed females were more than 20% attracted behavioral trials were halted and all data from that experimental day were discarded.
# [2] = target: Ae. aegypti NPYLR7 (Aedes aegypti, UniProt U5N1H5); experiment: In vitro calcium (GCaMP6s) FLIPR assay in HEK293T cells transfected with NPYLR7; format: cell-based; settings: for in vitro potency (in words): relative to reference compound TDI-012631; for RFU: assay date 1/11/20 plate 1, duplicate wells, listed as TDI-012615-NX-1
# Description: The in vitro screening assay was adapted from, and carried out at HD Biosciences (HDB, Shanghai) as follows: HEK293T (Thermo Fisher Scientific) cells were grown in Dulbecco’s modified Eagle medium (DMEM) (high glucose, with glutamine), 10% fetal bovine serum, 1% penicillin–streptomycin (Pen/Strep), seeded in a 75 cm^2 flask, and incubated at 37 °C and 5% CO2. Cells were transiently transfected with 1 μg of each plasmid expressing GCaMP6s (Addgene […]) (Chen et al., 2013), mouse Gqα15 (Addgene #40753) (Offermanns and Simon, 1995) and Ae. aegypti NPYLR7 (Addgene #52392) (Duvall et al. 2019) using Lipofectamine 2000 (Invitrogen) in 4 ml of Opti-MEM (Invitrogen). This mixture was added to a plate after 20 min and incubated for 6–8 h. Cells were then trypsinized, resuspended in phenol-free media, and plated in a 384-well plate (Greiner Bio-One) at a density of 20,000 cells per 40 μl, and incubated overnight (37 °C, 5% CO2). Cells were imaged directly in phenol-free media. Plates were loaded into a Molecular Devices fluorescence imaging plate reader (FLIPR) with an excitation wavelength of 470–495 nm and an emitted wavelength of 515–575 nm. Plates were imaged every second for 5 min. After 30 s of baseline fluorescence recording, 10 μl of the test compound in reading buffer [Hank’s Balanced Salt Solution (Gibco) + 20 mM HEPES (Sigma-Aldrich)] was added. Concentrations tested ranged from 0 to 100 μM. Data were collected in raw fluorescence units (RFU).
# Each test plate included replicates of 10 μM FMRFa3 (H‐Ala‐Gly‐Gln‐Gly‐Phe‐Met‐Arg‐Phe‐NH2), an Ae. aegypti neuropeptide agonist of NPYLR7 used to calculate the hundred percent effect (HPE). The zero percent effect (ZPE) control was calculated as a response to buffer alone. The Z′ factor was calculated for each plate by Z^′=1-3σHPE+3σZPE/|μHPE-μZPE| . Plates with Z′ < 0.5 were excluded from analysis. Raw fluorescence units (RFU) were converted to percent effect relative to the average of the ZPE and HPE. Percent effect = (sample luminescence − average ZPE)/(average HPE − average ZPE)×100. […] Each replicate was plotted as percent effect versus log[concentration], and replicates with maximal responses between 20 and 250% were used for EC50 calculations. Relative EC50 was calculated using an [Agonist] versus response–variable slope four-parameter model where Y=Bottom+(X^Hillslope)∗(Top-Bottom)/(X^HillSlope+EC50^HillSlope) . For compounds with multiple replicates, the relative EC50 of each replicate was averaged.
# [3] = system: Aedes aegypti (Orlando strain) females; experiment: Biting assay (mouse-in-cage); format: in vivo; parameters: key to Difference between medians: Actual (vs. saline) / Difference between medians: Hodges-Lehmann (vs. saline): differences in percent biting (blood-fed/total females, %); settings: for Difference between medians: Actual (vs. saline) / Difference between medians: Hodges-Lehmann (vs. saline) / Median (percent freshly blood-fed) / Significantly different (P < 0.05)? vs. saline: fed 1 μM; for Percentage of females that freshly blood-fed on an anesthetized mouse: fed 1 μM 48 h prior, 15 min exposure, individual replicates; for effect on biting / blood-feeding from a live host (in words): fed at a dose of 1 μM
# Description: as §1, with “ATP (1 mM final concentration) and test compounds (1 μM final concentration) were added prior to placing the meal on top of the mesh on the cage containing female mosquitos.” left out
# This assay was modified from. Females were fed and scored as described above. Forty-eight hours post-meal, females were anesthetized in a 4 °C cold room and aspirated into a petri dish (Thermo Fisher Biosciences) with a randomly assigned color powder (Slice of the Moon; Chameleon Colors) to mark their treatment group. Females were then individually removed from the color powder, placed inside a cage measuring 91 cm × 61 cm × 61 cm (BugDorm), and allowed 2–4 h to recover. Each experiment consisted of a cage with 12–20 females in each treatment group including environmental (non-fed and blood-fed) and vehicle (saline-fed) control groups. The experiment began once an anesthetized mouse was introduced to the center of the cage, and females were allowed 15 min to blood-feed. The mouse was then removed, and the cage was placed at 4 °C to anesthetize females for collection. Females were aspirated into a large glass petri dish (Pyrex) and scored under a dissection microscope (Nikon SMZ1500) for powder color and blood-feeding status. Females were scored as blood-fed if fresh blood was present in the abdomen. Percent biting was calculated as females freshly blood-fed/total females in each respective treatment group.
# [4] = Figure 1E Summary, third list (n = 39), read-out: Reported Metric (Summary list)
# [5] = relative EC50, percent effect relative to 10 μM FMRFa3, read-out: EC50
# Sequence of Ae. aegypti NPYLR7 (U5N1H5 entry or part of it): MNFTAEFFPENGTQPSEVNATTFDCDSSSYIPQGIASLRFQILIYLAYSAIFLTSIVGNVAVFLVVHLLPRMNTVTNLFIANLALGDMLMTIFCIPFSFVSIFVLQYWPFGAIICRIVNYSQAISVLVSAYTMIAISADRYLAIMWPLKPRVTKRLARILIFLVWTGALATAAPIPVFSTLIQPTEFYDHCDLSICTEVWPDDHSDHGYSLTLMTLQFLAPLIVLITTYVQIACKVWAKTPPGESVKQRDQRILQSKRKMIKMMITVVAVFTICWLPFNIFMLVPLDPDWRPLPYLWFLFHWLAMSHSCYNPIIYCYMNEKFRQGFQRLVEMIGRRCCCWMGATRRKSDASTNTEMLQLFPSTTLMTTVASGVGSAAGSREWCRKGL
SMILES,Attraction (relative to saline) [1],"EC50 [2, 4]","EC50 [2, 5]",in vitro potency (in words) [2],Difference between medians: Actual (vs. saline) [3],Difference between medians: Hodges-Lehmann (vs. saline) [3],Median (percent freshly blood-fed) [3],Significantly different (P < 0.05)? vs. saline [3],effect on biting / blood-feeding from a live host (in words) [3],also measured
Cc1nc(NC(=N)N)nc2cc(OCc3ccc(OC(F)F)cc3)ccc12 [TDI-014170],0.91,1.63 µM,1.63 µM,high in vitro potency,-19.9,-11,"59.60, n=9%",No,nor did it significantly reduce biting,"effect on host-seeking (in words) ([1]; fed at a dose of 1 μM): did not reduce host-seeking; EC50 ([2]; EC50 of the individual assay date/plate (assay date), read-out: EC50): 1.63 µM; activation at 11.1111 µM ([2]; HEK-293T, 11.1111 uM, single replicate, normalised response): 80.9%; activation at 33.3333 µM ([2]; HEK-293T, 33.3333 uM, single replicate, normalised response): 99.8%; activation at 100 µM ([2]; HEK-293T, 100 uM, single replicate of the dose-response curve, normalised response): 128%; EC50 ([2]; summary EC50 per compound (mean over assay dates), the unit is taken from the neighbouring EC50 (uM) column, read-out: Reported Metric): 1.63 µM; Percentage of females that freshly blood-fed on an anesthetized mouse ([3]; listed as TDI-04170): 44% and 57% and 85% and 74% and 53% and 82% and 55% and 62%"
CNc1nc(NC(=N)N)nc2cc(OCC3CCOCC3)ccc12 [TDI-014188],0.895,–,0.0602 µM,significantly improved in vitro potency,-21.9,-21,"50.00, n=11%",Yes,reduced biting behavior,Percentage of females that freshly blood-fed on an anesthetized mouse ([3]; listed as TDI-04188): 17% and 78% and 72% and 33% and 47% and 67% and 53%
Cc1nc(NC(=N)N)nc2cc(OC(F)F)ccc12 [TDI-012615],0.94,1.62 µM,1.62 µM,–,–,–,–,–,–,"RFU ([2]; 0.00169350878084303uM): 74 RFU and 66 RFU; RFU ([2]; 0.00508052634252909uM): 74 RFU and 63 RFU; RFU ([2]; 0.0152415790275873uM): 71 RFU and 60 RFU; RFU ([2]; 0.0457247370827618uM): 57 RFU and 73 RFU; RFU ([2]; 0.137174211248285uM): 57 RFU and 91 RFU; RFU ([2]; 0.411522633744856uM): 153 RFU and 157 RFU; RFU ([2]; 1.23456790123457uM): 207 RFU and 271 RFU; RFU ([2]; 3.7037037037037uM): 247 RFU and 267 RFU; RFU ([2]; 11.1111111111111 uM): 339 RFU and 333 RFU; RFU ([2]; 33.333333 uM): 353 RFU and 317 RFU; RFU ([2]; 100 uM): 434 RFU and 405 RFU; EC50 ([2]; Figure 1E, EC50 of the single assay date/plate, read-out: EC50): 1.31 µM and 1.93 µM; EC50 ([2]; Figure 1E, metric reported per compound, repeated on every replicate line, read-out: Reported Metric (EC50)): 1.62 µM"
COc1cc2c(C)nc(NC(=N)N)nc2cc1OCc1ccccc1 [TDI-012943],1.035,0.0545 µM,0.0545 µM,–,–,–,–,–,–,"EC50 ([2]; Figure 1E summary value per compound, repeated on each replicate line, read-out: Reported Metric (EC50 summarised over assay dates)): 0.0545 µM; EC50 ([2]; fit per assay date/plate (c2), repeated on the replicate lines of one date, read-out: EC50): 0.0446 µM and 0.119 µM"
